Data as given in patent US20250154154A1 (Relay Binney Street, 2nd Floor, priority 2020, published 2025).

Columns and labels:
[1] = test system: phospho-S6RP (Ser 235/236) in RBE cells; assay: Cellular Proliferation Protocol (cellular phospho-S6RP HTRF), RBE cells; assay type: cell-based; conditions: 6 hours treatment, RBE or SNU-1079 cells, cell line not given
How it was run: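 RBE cells, 2000/well, seeded 24 h before 6 h compound treatment at 37° C. Lysates were probed with a Eu-cryptate/d2 HTRF antibody sandwich for phospho-S6RP (Ser 235/236), incubated overnight at room temperature. Signal normalised to DMSO control and IC50 fitted to a 4-parameter curve.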

SRC = SRC (Homo sapiens, UniProt P12931); assay: SRC Biochemical Assay Protocol (microfluidic mobility shift assay, FLPeptide4 substrate)
How it was run: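 Recombinant SRC (0.26 nM) preincubated 30 min at RT with compound (0.0017–100 μM) and 1.5 μM FLPeptide4, then 50 μM ATP added; 90 min reaction in HEPES pH 7.4, 10 mM MgCl2, 1% DMSO, EDTA-quenched. Phosphopeptide quantified by microfluidic mobility shift; IC50 from 4-parameter logistic fit.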

RBE cells = assay: Cell Viability Protocol (CellTiterGlo), RBE cells; assay type: cell-based; conditions: RBE or SNU-1079 cells, 72 or 120 hour, cell line and time not given
How it was run: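 RBE cells plated at 1200/well in RPMI 1640 with 10% FBS, incubated 24 h, then dosed with compound from DMSO stocks and incubated 72 or 120 h at 37° C. CellTiterGlo luminescence normalised to DMSO control; IC50 from 4-parameter fit.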

SRC, sequence (P12931 whole entry, species assumed): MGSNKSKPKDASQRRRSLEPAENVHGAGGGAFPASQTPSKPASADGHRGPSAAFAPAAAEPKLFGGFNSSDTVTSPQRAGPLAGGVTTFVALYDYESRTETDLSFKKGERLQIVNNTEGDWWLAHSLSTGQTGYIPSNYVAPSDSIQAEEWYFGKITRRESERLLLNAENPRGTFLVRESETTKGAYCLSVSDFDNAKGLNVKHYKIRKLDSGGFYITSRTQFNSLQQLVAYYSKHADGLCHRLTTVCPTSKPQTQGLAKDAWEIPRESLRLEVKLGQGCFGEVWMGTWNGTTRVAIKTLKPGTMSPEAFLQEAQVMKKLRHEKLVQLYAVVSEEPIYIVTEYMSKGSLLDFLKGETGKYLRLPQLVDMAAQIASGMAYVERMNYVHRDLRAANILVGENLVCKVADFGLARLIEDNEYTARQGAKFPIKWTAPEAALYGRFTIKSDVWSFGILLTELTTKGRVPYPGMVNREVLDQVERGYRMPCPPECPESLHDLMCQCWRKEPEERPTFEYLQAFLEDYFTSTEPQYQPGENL

SMILES | IC50 (SRC) [nM] | IC50 ([1]; 6 h) [nM] | IC50 (RBE cells) [nM] | IC50 [1] [nM]
C=CC(=O)N1CC[C@@H](N2CC(C#Cc3c(-c4ccc5c(c4)OCCO5)c4c(N)ncnc4n3C)C2)[C@@H](O)C1 [II-74] | 10 to 1000 | – | 10 to 1000 | 10 to 1000
C=CC(=O)N1CC(N2CCC(C#Cc3c(-c4ccc(Oc5ccccc5)cc4)c4c(N)ncnc4n3C(C)C)CC2)C1 [Example I-45] | ≤ 10 | ≤ 10 | ≤ 10 | –
C=CC(=O)N1CCC(N2CC(C#Cc3c(-c4ccc(C(F)(F)F)cc4)c4c(N)ncnc4n3C)C2)CC1 [II-102] | 10 to 1000 | – | 10 to 1000 | 10 to 1000
C=CC(=O)N1CC[C@@H](N2CC(C#Cc3c(-c4ccc(Oc5cccc(F)c5)cc4)c4c(N)ncnc4n3C)C2)[C@@H](O)C1 | 10 to 1000 | – | 10 to 1000 | 10 to 1000
C=CC(=O)N1CCC(N2CC(C#Cc3c(-c4ccc(Oc5ccccc5)cc4)c4c(N)ncnc4n3C(C)C)C2)CC1 [Example I-44] | ≤ 10 | ≤ 10 | ≤ 10 | –
C=CC(=O)N1CCC(N2CC(C#Cc3c(-c4ccc(OC(F)(F)F)cc4)c4c(N)ncnc4n3C)C2)CC1 [II-103] | 10 to 1000 | – | 10 to 1000 | 10 to 1000
C=CC(=O)N1CC[C@@H](N2CC(C#Cc3c(-c4ccc(Oc5cccc(C)n5)c(Cl)c4)c4c(N)ncnc4n3C)C2)[C@@H](O)C1 [II-20] | 10 to 1000 | – | 10 to 1000 | 10 to 1000
C=CC(=O)N1CC[C@@H](N2CC(C#Cc3c(-c4ccc(Cl)cc4)c4c(N)ncnc4n3C(C)C)C2)[C@@H](O)C1 [II-53] | ≤ 10 | – | 10 to 1000 | 10 to 1000
C=CC(=O)N1C[C@@H]2[C@@H](C#Cc3c(-c4ccc(Oc5cccc(C)n5)c(OC)c4)c4c(N)ncnc4n3CS(C)(=O)=O)[C@@H]2C1 [II-51] | 10 to 1000 | – | 10 to 1000 | 10 to 1000
C=CC(=O)N1CC[C@@H](N2CC(C#Cc3c(-c4ccc(OC5CC5)cc4)c4c(N)ncnc4n3C)C2)[C@@H](O)C1 [II-70] | 1000 to 10000 | – | 10 to 1000 | 10 to 1000
C=CC(=O)N1CC[C@@H](N2CC(C#Cc3c(-c4ccc(OC5(C)CC5)cc4)c4c(N)ncnc4n3C)C2)[C@@H](O)C1 [II-16] | 1000 to 10000 | 10 to 1000 | 10 to 1000 | –
Cc1ccnc(Oc2ccc(-c3c(C#C[C@@H]4[C@H]5CN(C(=O)/C=C/CN(C)C)C[C@@H]45)n(C)c4ncnc(N)c34)cc2)c1 [II-241, (E)-1-((1R,5S,6s)-6-((4-amino-7-methyl-5-(4-((4-methylpyridin-2-yl)oxy)phenyl)-7H-pyrrolo[2,3-d]pyrimidin-6-yl)ethynyl)-3-azabicyclo[3.1.0]hexan-3-yl)-4-(dimethylamino) but-2-en-1-one] | 10 to 1000 | – | 10 to 1000 | 10 to 1000
C=CC(=O)N1CCC(N2CC(C#Cc3c(-c4ccc(Cl)c(CO)c4)c4c(N)ncnc4n3C)C2)CC1 [II-90] | 10 to 1000 | – | 10 to 1000 | 10 to 1000
C=CC(=O)N1CCC(N2CC(C#Cc3c(-c4cc(OC)c(Cl)c(OC)c4)c4c(N)ncnc4n3C)C2)CC1 [II-91] | 10 to 1000 | – | 10 to 1000 | 10 to 1000
COc1cc(Oc2cccc(F)c2)ccc1-c1c(C#C[C@@H]2[C@H]3CN(C(=O)/C=C/CN(C)C)C[C@@H]23)n(C)c2ncnc(N)c12 [II-45] | 10 to 1000 | – | 10 to 1000 | 10 to 1000
C=CC(=O)N1CC[C@@H](N2CC(C#Cc3c(-c4ccc(Cl)c(OC)c4)c4c(N)ncnc4n3C(C)C)C2)[C@@H](O)C1 [II-55] | ≤ 10 | – | 10 to 1000 | ≤ 10

Continued, in another order:

IC50 (SRC) [nM] | SMILES | IC50 ([1]; 6 h) [nM] | IC50 (RBE cells) [nM] | IC50 [1] [nM]
10 to 1000 | Cn1c(C#CC2CC3(C2)CN(C(=O)/C=C/CN2CC(F)C2)C3)c(-c2ccc(Oc3ccccc3)cc2)c2c(N)ncnc21 [II-175, (E)-1-(6-((4-amino-7-methyl-5-(4-phenoxyphenyl)-7H-pyrrolo[2,3-d]pyrimidin-6-yl)ethynyl)-2-azaspiro[3.3]heptan-2-yl)-4-(3-fluoroazetidin-1-yl)but-2-en-1-one] | 10 to 1000 | ≤ 10 | –
≤ 10 | C=CC(=O)N1CC[C@H](N2CC(C#Cc3c(-c4ccc(Cl)c(C)c4)c4c(N)ncnc4n3C(C)C)C2)[C@H](O)C1 [II-112] | – | 10 to 1000 | 10 to 1000
≤ 10 | C=CC(=O)N1CC2C(C#Cc3c(-c4ccc(Cl)c5c4OCO5)c4c(N)ncnc4n3C)C2C1 (stereo not drawn) [II-127] | – | 10 to 1000 | 10 to 1000
≤ 10 | C=CC(=O)N1CCC(N2CC(C#Cc3c(-c4ccc(Cl)c(C)c4)c4c(N)ncnc4n3C(C)C)C2)CC1 [II-114] | – | 10 to 1000 | 10 to 1000
≤ 10 | CC(C)n1c(C#C[C@@H]2[C@H]3CN(C(=O)/C=C/CN(C)C)C[C@@H]23)c(-c2ccc(F)c3c2OCO3)c2c(N)ncnc21 [II-293] | ≤ 10 | ≤ 10 | –
≤ 10 | C=CC(=O)N1CC[C@H](N2CC(C#Cc3c(-c4cccc5c4OCO5)c4c(N)ncnc4n3C(C)C)C2)[C@H](F)C1 [II-110] | – | 10 to 1000 | ≤ 10
≤ 10 | C=CS(=O)(=O)N1CC[C@@H](N2CC(C#Cc3c(-c4ccc(Oc5ccccc5)c(OC)n4)c4c(N)ncnc4n3C)C2)[C@@H](O)C1 [II-323] | – | ≤ 10 | 10 to 1000
10 to 1000 | COC/C=C/C(=O)N1CCC(N2CC(C#Cc3c(-c4ccc(Oc5ccccc5)cc4)c4c(N)ncnc4n3C)C2)CC1 [II-187, (E)-1-(4-(3-((4-amino-7-methyl-5-(4-phenoxyphenyl)-7H-pyrrolo[2,3-d]pyrimidin-6-yl)ethynyl)azetidin-1-yl)piperidin-1-yl)-4-methoxybut-2-en-1-one] | ≤ 10 | ≤ 10 | –
10 to 1000 | C=CC(=O)N1CCC(N2CC(C#Cc3c(-c4ccc(Oc5ccccc5)cc4)c4c(N)ncnc4n3CCO)C2)CC1 [II-190, 1-(4-(3-((4-amino-7-(2-hydroxyethyl)-5-(4-phenoxyphenyl)-7H-pyrrolo[2,3-d]pyrimidin-6-yl)ethynyl)azetidin-1-yl)piperidin-1-yl)prop-2-en-1-one] | 10 to 1000 | ≤ 10 | –
≤ 10 | C=CC(=O)N1C[C@@H]2[C@@H](C#Cc3c(-c4ccc(Oc5ccccc5)cc4)c4c(N)ncnc4n3C3CCOC3)[C@@H]2C1 (stereo partly drawn) [II-209, 1-((1R,5S,6s)-6-((4-amino-5-(4-phenoxyphenyl)-7-(tetrahydrofuran-3-yl)-7H-pyrrolo[2,3-d]pyrimidin-6-yl)ethynyl)-3-aza-bicyclo[3.1.0]hexan-3-yl)prop-2-en-1-one] | ≤ 10 | ≤ 10 | –
≤ 10 | C=CC(=O)N1CCN(C2CC(C#Cc3c(-c4ccc(Oc5ccccc5)cc4)c4c(N)ncnc4n3C)C2)C(=O)C1 (stereo not drawn) [II-166, 4-acryloyl-1-(3-((4-amino-7-methyl-5-(4-phenoxyphenyl)-7H-pyrrolo[2,3-d]pyrimidin-6-yl)ethynyl)cyclobutyl) piperazin-2-one] | ≤ 10 | ≤ 10 | –
10 to 1000 | C=CC(=O)N1CCN(C2CC(C#Cc3c(-c4ccc(Oc5ccccc5)cc4)c4c(N)ncnc4n3C)C2)CC1 (stereo not drawn) [II-167, 1-(4-(3-((4-amino-7-methyl-5-(4-phenoxyphenyl)-7H-pyrrolo[2,3-d]pyrimidin-6-yl)ethynyl)cyclobutyl)piperazin-1-yl)prop-2-en-1-one] | 10 to 1000 | ≤ 10 | –
≤ 10 | Cn1c(C#CC2CC3(C2)CN(C(=O)/C=C/CN2CC(O)C2)C3)c(-c2ccc(Oc3ccccc3)cc2)c2c(N)ncnc21 [II-174, (E)-1-(6-((4-amino-7-methyl-5-(4-phenoxyphenyl)-7H-pyrrolo[2,3-d]pyrimidin-6-yl)ethynyl)-2-azaspiro[3.3]heptan-2-yl)-4-(3-hydroxyazetidin-1-yl)but-2-en-1-one] | 10 to 1000 | 10 to 1000 | –
10 to 1000 | C=CC(=O)N1C[C@@H]2[C@@H](C#Cc3c(-c4ccc(Oc5cccc(C)n5)cc4OC)c4c(N)ncnc4n3CCOC)[C@@H]2C1 [II-276] | 10 to 1000 | 10 to 1000 | –
≤ 10 | C=CC(=O)N1CCC(N2CC(C#Cc3c(-c4ccc(Cl)c(OC)n4)c4c(N)ncnc4n3C(C)C)C2)CC1 [II-327] | – | 10 to 1000 | 10 to 1000
10 to 1000 | C=CC(=O)N1CCC(N2CC(F)(C#Cc3c(-c4ccc(Oc5ccccc5)c(OC)c4)c4c(N)ncnc4n3C)C2)CC1 [II-246, 1-(4-(3-((4-amino-5-(3-methoxy-4-phenoxyphenyl)-7-methyl-7H-pyrrolo[2,3-d]pyrimidin-6-yl)ethynyl)-3-fluoroazetidin-1-yl)piperidin-1-yl)prop-2-en-1-one] | 10 to 1000 | ≤ 10 | –
10 to 1000 | C=CC(=O)N1CC[C@@H](N2CC(C#Cc3c(-c4ccc(Oc5cccc(C)n5)c(OC)c4)c4c(N)ncnc4n3C)C2)[C@H](O)C1 [II-217, 1-((3R,4R)-4-(3-((4-amino-5-(3-methoxy-4-((6-methylpyridin-2-yl)oxy)phenyl)-7-methyl-7H-pyrrolo[2,3-d]pyrimidin-6-yl)ethynyl)azetidin-1-yl)-3-hydroxypiperidin-1-yl)prop-2-en-1-one] | 10 to 1000 | 10 to 1000 | –
≤ 10 | C=CC(=O)N[C@@H](CO)C(=O)N1CCC(C#Cc2c(-c3ccc(Oc4ccccc4)cc3)c3c(N)ncnc3n2C)CC1 [II-198] | ≤ 10 | ≤ 10 | –
